Experimental data as given in patent publication US10981911B2, “Imidazopyrrolopyridine as inhibitors of the JAK family of kinases” (Janssen Pharmaceutica NV, priority 2016, dated 2021).

Legend:
[1] = tested on: IFNα pSTAT4 (JAK1/TYK2); assay: IFNα pSTAT4 (JAK1/TYK2) cellular assay (AlphaLISA, PBMCs); assay type: cell-based; conditions: PBMC, IFNα at 4 ng/mL
Procedure: The AlphaLISA assay (based on Alpha Technology from PerkinElmer) was performed by first plating freshly thawed PBMCs (Biological Specialty Corporation) in 384-well plates at 100,000 cells per 6 μL per well in DMEM (Dulbecco's Modified Eagle Medium) containing 10% FBS (fetal bovine serum) and 1,000 I.U./mL penicillin and 1,000 μg/mL streptomycin. The cells were then treated with 2 μL/well of compounds diluted in DMSO at half-log titrated concentrations, with a highest test concentration of 10 μM and 0.5% final DMSO concentration, for thirty minutes at 37° C. Next, the cells were stimulated with 2 μL/well of IFNα (PBL Assay Science Cat. No. 11101-2) at 4 ng/mL for thirty minutes at 37° C. The cellular reactions were terminated by the addition of 2 μL/well of lysis buffer (PerkinElmer Cat. No. ALSU-PST4-A10K) followed by an incubation of five minutes at room temperature. 4 μL/well of acceptor mix (PerkinElmer Cat. No. ALSU-PST4-A10K) was added to the cells and incubated in the dark for one hour at room temperature. Then, 4 μL/well of donor mix (PerkinElmer Cat. No. ALSU-PST4-A10K) was added to the cells and incubated in the dark overnight at room temperature. Finally, the plates were read on a PerkinElmer EnVision for detection of the time-resolved fluorescence signal. The percentage of IFNα-dependent pSTAT4 inhibition was determined at the compound test concentrations; and for each compound, a dose curve was generated and the IC50 was calculated. Compound IC50 was calculated by nonlinear regression, sigmoidal dose response analysis of the half-log dilution titration curve of the compound concentration vs. Alpha signal. The term “Alpha” is defined in the immediately preceding cellular assay description.

[2] = tested on: GM-CSF pSTAT5 (JAK2/JAK2); assay: GM-CSF pSTAT5 (JAK2/JAK2) cellular assay (AlphaLISA, PBMCs); assay type: cell-based; conditions: PBMC, GM-CSF at 11 pg/mL
Procedure: The AlphaLISA assay (based on Alpha Technology from PerkinElmer) was performed by first plating freshly thawed PBMCs (Biological Specialty Corporation) in 384-well plates at 30,000 cells per 4 µL per well in HBSS containing 0.1% IgG-free, protease-free BSA (Jackson ImmunoResearch Cat. No. 001-000-161). The cells were then treated with 2 μL/well of compounds diluted in DMSO at half-log titrated concentrations, with a highest test concentration of […] and 0.5% final DMSO concentration, for thirty minutes at 37° C. Next, the cells were stimulated with 2 μL/well of GM-CSF (R&D Systems Cat. No. 215-GM-050) at 11 pg/mL for fifteen minutes at 37° C. The cellular reactions were terminated by the addition of 2 µL/well of lysis buffer (PerkinElmer Cat. No. ALSU-PST5-A10K) followed by an incubation of five minutes at room temperature. 5 μL/well of acceptor mix (PerkinElmer Cat. No. ALSU-PST5-A10K) was added to the cells and incubated in the dark for one hour at room temperature. Then, 5 μL/well of donor mix (PerkinElmer Cat. No. ALSU-PST5-A10K) was added to the cells and incubated in the dark overnight at room temperature. Finally, the plates were read on a PerkinElmer EnVision for detection of the time-resolved fluorescence signal. The percentage of GM-CSF-dependent pSTAT5 inhibition was determined at the compound test concentrations; and for each compound, a dose curve was generated and the IC50 was calculated. Compound IC50 was calculated by nonlinear regression, sigmoidal dose response analysis of the half-log dilution titration curve of the compound concentration vs. Alpha signal. The term “Alpha” is defined in the IL-2 pSTAT5 (JAK1/JAK3) cellular assay description.

[3] = tested on: P-gp (MDR1); assay: MDCK-MDR1 permeability assay; assay type: in vitro ADME; conditions: dog; for Papp A→B at 60 min, 5 μM / Papp B→A at 60 min, 5 μM: MDCK-MDR1, pH 7.4, @ 5 μM; for Papp A→B at 60 min, 5 μM: apical to basolateral, without P-gp inhibitor; for Papp B→A at 60 min, 5 μM: basolateral to apical; for efflux ratio at 60 min, 5 μM: MDCK-MDR1, pH 7.4, MDCK-MDR1, 5 μM, read-out: Papp(B-A)/Papp(A-B) (efflux ratio)
Procedure: Permeability measurements were conducted according to the Cyprotex protocol using the MDCK-MDR1 cell line obtained from the NIH (Rockville, Md., USA). Cells between passage numbers 6-30 were seeded onto a Multiscreen Plate™ (Millipore) at a cell density of 3.4×10^5 cells/cm^2 and cultured for three days before permeability studies were conducted. The cells in this assay form a cohesive sheet of a single cell layer filing the surface area of the culture dish, also known as a confluent monolayer, and on day four the test compound was added to the apical side of the membrane and the transport of the compound across the monolayer was monitored over a time period of 60 min.
Test compounds were dissolved in DMSO at a concentration of 10 mM. The dosing solutions were prepared by diluting test compound with assay buffer (Hanks Balanced Salt Solution), pH 7.4, at a final concentration of 5 μM. For assessment of apical to basolateral (“A-B”) permeability, buffer was removed from the apical compartment and replaced with test compound dosing solution with or without the permeability glycoprotein (“PgP”, “P-gP”, “Pgp” or “P-gp”) inhibitor elacridar (2 μM). For assessment of basolateral to apical (“B-A”) permeability, buffer was removed from the companion plate and replaced with test compound dosing solution. Incubations were carried out in duplicate at 37° C. in an atmosphere of 5% CO2 with a relative humidity of 95%. Each assay included the reference markers propranolol (high permeability) and prazosin (PgP substrate). After incubation for 60 minutes, apical and basolateral samples were diluted and test compounds quantified by LC/MS/MS using an 8-point calibration in the range 0.0039 to 3 μM with appropriate dilution of the samples (receiver dilution factor=1; donor and C0 dilution factor=10). The permeability coefficient (Papp) for each compound was calculated from the following equation: Papp=(dQ/dt)/(C0×S), where dQ/dt is the rate of permeation of the drug across the cells, C0 is the donor compartment concentration at time zero, and S is the area of the cell monolayer.
The second and third columns in Table 7 show the values of Papp(A-B) for the apical-to-basolateral compound transport without (second column) and with a P-gp inhibitor (third column, noted as P^eapp(A-B)) that was elacridar. Papp(A-B) gives an indication of permeation extent across the cells in this assay, which is envisaged to model the transcellular transport across Pgp-expressing cells, such as Pgp-expressing gastrointestinal tract cells. P^eapp(A-B) values (Papp(A-B) in the presence of the P-gp inhibitor) given in column 3 are determined to confirm the role of P-gp in the compound efflux. […] Test compound efflux ratios are given in the fifth column of Table 7 as Papp(B-A)/Papp(A-B) by using the corresponding permeability coefficient values from the fourth and second columns in the same table.

Row | SMILES | IC50 [1] [nM] | IC50 [2] [nM] | Papp A→B at 60 min, 5 μM [3] [×10⁻⁶ cm/s] | Papp B→A at 60 min, 5 μM [3] [×10⁻⁶ cm/s] | efflux ratio at 60 min, 5 μM [3]
1 | N#CCC12CCC(NC(=O)Cc3nc4cnc5[nH]ccc5c4n3[C@H]3CC[C@H](CC#N)CC3)(CC1)C2 [Ex. 55, N-(4-(Cyanomethyl)bicyclo[2.2.1]heptan-1-yl)-2-(1-((1r,4r)-4-(cyanomethyl)cyclohexyl)-1,6-dihydroimidazo[4,5-d]pyrrolo[2,3-b]pyridin-2-yl)acetamide] | 40.4 | 44.6 | < 0.4 | 7.1 | > 16.9
2 | CC(C)(C#N)CNC(=O)Cc1nc2cnc3[nH]ccc3c2n1[C@H]1CC[C@H](CC#N)CC1 [Ex. 22, N-(2-Cyano-2-methylpropyl)-2-(1-((1r,4r)-4-(cyanomethyl)cyclohexyl)-1,6-dihydroimidazo[4,5-d]pyrrolo[2,3-b]pyridin-2-yl)acetamide] | 38.5 | 67.3 | < 0.4 | 3.6 | > 9
3 | N#CC[C@H]1CC[C@H](n2c(CC(=O)NCC3(O)CC3)nc3cnc4[nH]ccc4c32)CC1 [Ex. 85, 2-(1-((1r,4r)-4-(Cyanomethyl)cyclohexyl)-1,6-dihydroimidazo[4,5-d]pyrrolo[2,3-b]pyridin-2-yl)-N-((1-hydroxycyclopropyl)methyl)acetamide] | 81.4 | 75.4 | < 0.5 | 1.1 | > 2.2
4 | N#CC[C@H]1CC[C@H](n2c(CC(=O)NCC3CCOCC3)nc3cnc4[nH]ccc4c32)CC1 [Ex. 10, 2-(1-((1r,4r)-4-(Cyanomethyl)cyclohexyl)-1,6-dihydroimidazo[4,5-d]pyrrolo[2,3-b]pyridin-2-yl)-N-((tetrahydro-2H-pyran-4-yl)methyl)acetamide] | 39.4 | 25.1 | < 0.3 | 2.5 | > 8.4
5 | CC(C)(O)CNC(=O)Cc1nc2cnc3[nH]ccc3c2n1[C@H]1CC[C@H](CC#N)CC1 [Ex. 1, 2-(1-((1r,4r)-4-(Cyanomethyl)cyclohexyl)-1,6-dihydroimidazo[4,5-d]pyrrolo[2,3-b]pyridin-2-yl)-N-(2-hydroxy-2-methylpropyl)acetamide] |  |  | < 0.5 | 0.9 | > 1.9
6 | N#CCCNC(=O)Cc1nc2cnc3[nH]ccc3c2n1[C@H]1CC[C@H](CC#N)CC1 [Ex. 4, N-(2-Cyanoethyl)-2-(1-((1r,4r)-4-(cyanomethyl)cyclohexyl)-1,6-dihydroimidazo[4,5-d]pyrrolo[2,3-b]pyridin-2-yl)acetamide] | 64.7 | 119 | 0.1 | 1.3 | 8.7
7 | N#CC[C@H]1CC[C@H](n2c(CC(=O)NCC3CC3)nc3cnc4[nH]ccc4c32)CC1 [Ex. 3, 2-(1-((1r,4r)-4-(Cyanomethyl)cyclohexyl)-1,6-dihydroimidazo[4,5-d]pyrrolo[2,3-b]pyridin-2-yl)-N-(cyclopropylmethyl)acetamide] | 10.1 | 21.9 | < 0.4 | 17 | > 41
8 | N#CC[C@H]1CC[C@H](n2c(CC(=O)NCC3(O)CCC3)nc3cnc4[nH]ccc4c32)CC1 [Ex. 34, 2-(1-((1r,4r)-4-(Cyanomethyl)cyclohexyl)-1,6-dihydroimidazo[4,5-d]pyrrolo[2,3-b]pyridin-2-yl)-N-((1-hydroxycyclobutyl)methyl)acetamide] | 42.8 | 33.8 | 0.1 | 1.7 | 11.5
9 | N#CC[C@H]1CC[C@H](n2c(CC(=O)NC3CCOCC3)nc3cnc4[nH]ccc4c32)CC1 [Ex. 5, 2-(1-((1r,4r)-4-(Cyanomethyl)cyclohexyl)-1,6-dihydroimidazo[4,5-d]pyrrolo[2,3-b]pyridin-2-yl)-N-(tetrahydro-2H-pyran-4-yl)acetamide] | 38.1 | 28.9 | < 0.4 | 1.8 | > 4.8
10 | N#CCC1CCC(n2c(-c3c[nH]cn3)nc3cnc4[nH]ccc4c32)CC1 (stereo not drawn) [Ex. 2, 2-((1r,4r)-4-(2-(1H-Imidazol-4-yl)imidazo[4,5-d]pyrrolo[2,3-b]pyridin-1(6H)-yl)cyclohexyl)acetonitrile] | 20.8 | 61 | 1.1 | 4.8 | 4.4
